Tests used:
Assay type in all cases: cell-based, human
[1] = tested on: latex specific T cell lines; assay: Oligoclonal T cell proliferation assay (3H-thymidine incorporation); design: key to Proliferation inducing (+) or non-inducing (−) peptide: Proliferation inducing and non-inducing peptides are indicated by (+) and (−) respectively; Proliferation inducing and non-inducing peptides are indicated by (+) and (−) respectively; conditions: for Oligoclonal proliferative response: 4 day cultures
Experimental: Latex specific T cell lines were isolated using our well established methods for the generation of allergen specific oligoclonal T cell populations (O'Hehir et al., 1987). An initial primary culture was performed for each patient to determine the optimal concentration of LAL for stimulation. For this, peripheral blood mononuclear cells (PBMC) separated from heparinised venous blood by density centrifugation (2×10^5/well) were stimulated with LAL over a concentration range 0.03 to 100 μg/ml, with control cultures of PBMC alone or stimulated with tetanus toxoid. All cultures were maintained in complete medium (RPMI-1640, Gibco Life Technologies supplemented with 2 mmol/L L-glutamine, 100 IU/ml penicillin-streptomycin and 5% screened, heat inactivated human AB serum [Sigma]). […] Therefore, to generate T cell lines, PBMC (2.5×10^6/well) were stimulated for 1 week with LAL at a concentration of 20 μg/ml in 24-well tissue culture plates (Costar, USA). After 7 days, lymphoblasts (1×10^6/well) were restimulated for one week with LAL at a concentration of 20 μg/ml in the presence of an equal number of irradiated (3000 rad) autologous PBMC as antigen presenting cells (APC). On days 2 and 4, cultures were supplemented with Lymphocult-T (5% v/v; Biotest Folex, Germany) and fresh medium. At the end of the second week, lymphoblasts were restimulated for one week with rhev b 5/MBP at a concentration of 20 μg/ml as described above. Oligoclonal T cells were recovered, washed and tested in proliferation and cytokine assays (as described below) either fresh or after cryopreservation in liquid nitrogen. We have previously shown that CD4^+ T cells are preferentially expanded in these cultures.
Oligoclonal T cell blasts (5×10^4) were incubated in 96-well round bottom plates (Linbro, ICN Biomedicals, USA) in triplicate with equal numbers of irradiated APC in the presence of LAL at concentrations ranging from 0.03-100 μg/ml, rHev b 5/MBP (10 and 20 μg/ml), MBP (10 and 20 μg/ml), overlapping peptides of the Hev b 5 sequence (10 and 30 μg/ml), Lymphocult-T (10 IU/ml) or PHA (3 μg/ml). Cultures of T cells and APC in the absence of antigen, T cells alone and APC alone in the absence of antigen were included as controls. After 72 hours cultures were pulsed with 1 μCi of ^3H-thymidine (^3HTdR; Du Pont, NEN) and harvested 12-16 hours later. Proliferation as correlated with ^3HTdR incorporation was measured by liquid scintillation spectroscopy. Results are expressed as mean counts per minute (cpm) for triplicate cultures with standard deviation (SD; ±20% for all experiments).

IFNγ = IFNγ production by latex specific oligoclonal T cells (ELISA on culture supernatants); conditions: supernatant at 48 hours
Experimental: (§1) Representative stimulatory and non-stimulatory peptides were selected and T cells cultured in triplicate with these peptides. At 48 hours 50 μl of supernatant was harvested from the cultures and IL-5 and IFNγ were assayed by ELISA using paired cytokine antibodies (from Pharmingen Becton Dickinson, USA and Endogen, USA respectively). For this, opaque flat bottom ELISA plates (Nalgene, Nunc International) were coated with 30 μl capture antibody at 2 μg/ml in 0.1 M NaHCO3 pH 8.2 coating buffer overnight at 4° C. After washing three times with PBS/0.5% Tween the wells were blocked with 3% BSA/PBS at room temperature for 2 hours. The plates were washed and 30 μL pooled triplicate culture supernatants added in duplicate. […] Light emission was read immediately on a Lumicount microplate Glow Luminometer (Packard Instrument Company). A standard curve was run each time using known concentrations of standard cytokine samples and the concentrations of IL-S and IFNγ in the culture supernatants calculated accordingly. The lower limit of detection of the IL-5 assay was 20 pg/ml and the lower limit of detection of the IFN-γ assay was 2 pg/ml.

IL-5 = IL-5 production by latex specific oligoclonal T cells (ELISA on culture supernatants); conditions: for IL-5: supernatant at 48 hours; for secretion of IL-5 (in words): patient 4 T cell line
Experimental: as §1

[2] = P1 T cell line, antigen 10 μg/ml
[3] = P1 T cell line, antigen 30 μg/ml
[4] = P2 T cell line, antigen 10 μg/ml
[5] = P2 T cell line, antigen 30 μg/ml
[6] = P3 T cell line, antigen 10 μg/ml
[7] = P3 T cell line, antigen 30 μg/ml
[8] = P4 T cell line, antigen 10 μg/ml
[9] = P4 T cell line, antigen 30 μg/ml
[10] = P5 T cell line, antigen 10 μg/ml
[11] = P5 T cell line, antigen 30 μg/ml
[12] = P6 T cell line, antigen 10 μg/ml
[13] = P6 T cell line, antigen 30 μg/ml
[14] = P1 T cell line, peptide 10 μg/ml
[15] = P1 T cell line, peptide 30 μg/ml
[16] = P2 T cell line, peptide 10 μg/ml
[17] = P2 T cell line, peptide 30 μg/ml
[18] = P4 T cell line, peptide 10 μg/ml
[19] = P4 T cell line, peptide 30 μg/ml
[20] = P3 T cell line, peptide 10 μg/ml
[21] = P3 T cell line, peptide 30 μg/ml

AEEEKPITEAAETATTEVPV [Hev b 5 (127-146)]
Oligoclonal proliferative response [1, 2]: 3.3 counts per minute × 10^−3 | Oligoclonal proliferative response [1, 3]: 4.4 counts per minute × 10^−3 | Oligoclonal proliferative response [1, 4]: 3.8 counts per minute × 10^−3 | Oligoclonal proliferative response [1, 5]: 6.6 counts per minute × 10^−3 | Oligoclonal proliferative response [1, 6]: 7.1 counts per minute × 10^−3 | Oligoclonal proliferative response [1, 7]: 8.3 counts per minute × 10^−3 | Oligoclonal proliferative response [1, 8]: 2.2 counts per minute × 10^−3 | Oligoclonal proliferative response [1, 9]: 1.6 counts per minute × 10^−3 | Oligoclonal proliferative response [1, 10]: 2.7 counts per minute × 10^−3 | Oligoclonal proliferative response [1, 11]: 2.5 counts per minute × 10^−3 | Oligoclonal proliferative response [1, 12]: 1.0 counts per minute × 10^−3 | Oligoclonal proliferative response [1, 13]: 0.8 counts per minute × 10^−3

APAEPEAPAPETEKAEEVEK [Hev b 5 (55-74)]
IFNγ (IFNγ; [14]): 0 pg/mL | IFNγ (IFNγ; [15]): 0 pg/mL | IFNγ (IFNγ; [16]): 2 pg/mL | IFNγ (IFNγ; [17]): 4 pg/mL | IFNγ (IFNγ; [18]): 0 pg/mL | IFNγ (IFNγ; [19]): 0 pg/mL | Proliferation inducing (+) or non-inducing (−) peptide ([1]; P1 T cell line): 55-74 (−) | Oligoclonal proliferative response [1, 2]: 5.0 counts per minute × 10^−3 | Oligoclonal proliferative response [1, 3]: 7.7 counts per minute × 10^−3 | Proliferation inducing (+) or non-inducing (−) peptide ([1]; P2 T cell line): 55-74 (−) | Oligoclonal proliferative response [1, 4]: 2.8 counts per minute × 10^−3 | Oligoclonal proliferative response [1, 5]: 5.6 counts per minute × 10^−3 | Oligoclonal proliferative response [1, 6]: 9.1 counts per minute × 10^−3 | Oligoclonal proliferative response [1, 7]: 8.2 counts per minute × 10^−3 | Proliferation inducing (+) or non-inducing (−) peptide ([1]; P4 T cell line): 55-74 (+) | Oligoclonal proliferative response [1, 8]: 2.0 counts per minute × 10^−3 | Oligoclonal proliferative response [1, 9]: 2.8 counts per minute × 10^−3 | Oligoclonal proliferative response [1, 10]: 1.1 counts per minute × 10^−3 | Oligoclonal proliferative response [1, 11]: 0.7 counts per minute × 10^−3 | Oligoclonal proliferative response [1, 12]: 0.7 counts per minute × 10^−3 | Oligoclonal proliferative response [1, 13]: 0.9 counts per minute × 10^−3 | IL-5 (IL-5; [14]): 0 pg/mL | IL-5 (IL-5; [15]): 0 pg/mL | IL-5 (IL-5; [16]): 0 pg/mL | IL-5 (IL-5; [17]): 0 pg/mL | IL-5/IFNγ ratio (IL-5; [18]): 70 | IL-5 (IL-5; [18]): 70 pg/mL | IL-5/IFNγ ratio (IL-5; [19]): 199 | IL-5 (IL-5; [19]): 199 pg/mL | secretion of IL-5 (in words) (IL-5): secretion of IL-5

ASEQETADATPEKEEPTAAP [Hev b 5 (37-56)]
IFNγ (IFNγ; [14]): 0 pg/mL | IFNγ (IFNγ; [15]): 0 pg/mL | IFNγ (IFNγ; [16]): 74 pg/mL | IFNγ (IFNγ; [17]): 77 pg/mL | IFNγ (IFNγ; [18]): 0 pg/mL | IFNγ (IFNγ; [19]): 6 pg/mL | Proliferation inducing (+) or non-inducing (−) peptide ([1]; P1 T cell line): 37-56 (−) | Oligoclonal proliferative response [1, 2]: 7.1 counts per minute × 10^−3 | Oligoclonal proliferative response [1, 3]: 8.5 counts per minute × 10^−3 | Proliferation inducing (+) or non-inducing (−) peptide ([1]; P2 T cell line): 37-56 (+) | Oligoclonal proliferative response [1, 4]: 18.3 counts per minute × 10^−3 | Oligoclonal proliferative response [1, 5]: 38.8 counts per minute × 10^−3 | Oligoclonal proliferative response [1, 6]: 8.8 counts per minute × 10^−3 | Oligoclonal proliferative response [1, 7]: 2.7 counts per minute × 10^−3 | Proliferation inducing (+) or non-inducing (−) peptide ([1]; P4 T cell line): 37-56 (+) | Oligoclonal proliferative response [1, 8]: 3.0 counts per minute × 10^−3 | Oligoclonal proliferative response [1, 9]: 3.2 counts per minute × 10^−3 | Oligoclonal proliferative response [1, 10]: 1.4 counts per minute × 10^−3 | Oligoclonal proliferative response [1, 11]: 1.1 counts per minute × 10^−3 | Oligoclonal proliferative response [1, 12]: 1.4 counts per minute × 10^−3 | Oligoclonal proliferative response [1, 13]: 0.9 counts per minute × 10^−3 | IL-5 (IL-5; [14]): 0 pg/mL | IL-5 (IL-5; [15]): 0 pg/mL | IL-5/IFNγ ratio (IL-5; [16]): 10.1 | IL-5 (IL-5; [16]): 744 pg/mL | IL-5/IFNγ ratio (IL-5; [17]): 10 | IL-5 (IL-5; [17]): 767 pg/mL | IL-5/IFNγ ratio (IL-5; [18]): 173 | IL-5 (IL-5; [18]): 173 pg/mL | IL-5/IFNγ ratio (IL-5; [19]): 49.3 | IL-5 (IL-5; [19]): 296 pg/mL | secretion of IL-5 (in words) (IL-5): secretion of IL-5

TKETETEAPAAPAEGEKPAE [Hev b 5 (109-128)]
IFNγ (IFNγ; [14]): 0 pg/mL | IFNγ (IFNγ; [15]): 0 pg/mL | IFNγ (IFNγ; [16]): 73 pg/mL | IFNγ (IFNγ; [17]): 97 pg/mL | IFNγ (IFNγ; [20]): 257 pg/mL | IFNγ (IFNγ; [21]): 292 pg/mL | IFNγ (IFNγ; [18]): 0 pg/mL | IFNγ (IFNγ; [19]): 0 pg/mL | Proliferation inducing (+) or non-inducing (−) peptide ([1]; P1 T cell line): 109-128 (−) | Oligoclonal proliferative response [1, 2]: 8.2 counts per minute × 10^−3 | Oligoclonal proliferative response [1, 3]: 5.6 counts per minute × 10^−3 | Proliferation inducing (+) or non-inducing (−) peptide ([1]; P2 T cell line): 109-128 (+) | Oligoclonal proliferative response [1, 4]: 36.9 counts per minute × 10^−3 | Oligoclonal proliferative response [1, 5]: 42.7 counts per minute × 10^−3 | Proliferation inducing (+) or non-inducing (−) peptide ([1]; P3 T cell line): 109-128 (+) | Oligoclonal proliferative response [1, 6]: 13.7 counts per minute × 10^−3 | Oligoclonal proliferative response [1, 7]: 17.3 counts per minute × 10^−3 | Proliferation inducing (+) or non-inducing (−) peptide ([1]; P4 T cell line): 109-128 (+) | Oligoclonal proliferative response [1, 8]: 2.3 counts per minute × 10^−3 | Oligoclonal proliferative response [1, 9]: 3.0 counts per minute × 10^−3 | Oligoclonal proliferative response [1, 10]: 1.3 counts per minute × 10^−3 | Oligoclonal proliferative response [1, 11]: 0.9 counts per minute × 10^−3 | Oligoclonal proliferative response [1, 12]: 0.9 counts per minute × 10^−3 | Oligoclonal proliferative response [1, 13]: 0.6 counts per minute × 10^−3 | donors whose T cells proliferated in response to the peptide ([1]; five donors with IgE reactivity to rHev b 5/MBP): three of the five donors | IL-5 (IL-5; [14]): 0 pg/mL | IL-5 (IL-5; [15]): 69 pg/mL | IL-5/IFNγ ratio (IL-5; [16]): 4 | IL-5 (IL-5; [16]): 293 pg/mL | IL-5/IFNγ ratio (IL-5; [17]): 6.1 | IL-5 (IL-5; [17]): 595 pg/mL | IL-5/IFNγ ratio (IL-5; [20]): 5.5 | IL-5 (IL-5; [20]): 1403 pg/mL | IL-5/IFNγ ratio (IL-5; [21]): 5.3 | IL-5 (IL-5; [21]): 1559 pg/mL | IL-5/IFNγ ratio (IL-5; [18]): 166 | IL-5 (IL-5; [18]): 166 pg/mL | IL-5/IFNγ ratio (IL-5; [19]): 212 | IL-5 (IL-5; [19]): 212 pg/mL | secretion of IL-5 (in words) (IL-5): secretion of IL-5

— US20070059756A1, “Immunointeractive molecules and their uses in treating subjects suffering from Hev b 5 allergies” (priority 1999, published 2007)
